Test results: patent US7880059B2, “Production of proanthocyanidins to improve forage quality” (The Samuel Roberts Noble Foundation, priority 2007, dated 2011)

T1: UGT78G1 (Medicago truncatula, UniProt A6XNC6)
T1 sequence (A6XNC6 1-454): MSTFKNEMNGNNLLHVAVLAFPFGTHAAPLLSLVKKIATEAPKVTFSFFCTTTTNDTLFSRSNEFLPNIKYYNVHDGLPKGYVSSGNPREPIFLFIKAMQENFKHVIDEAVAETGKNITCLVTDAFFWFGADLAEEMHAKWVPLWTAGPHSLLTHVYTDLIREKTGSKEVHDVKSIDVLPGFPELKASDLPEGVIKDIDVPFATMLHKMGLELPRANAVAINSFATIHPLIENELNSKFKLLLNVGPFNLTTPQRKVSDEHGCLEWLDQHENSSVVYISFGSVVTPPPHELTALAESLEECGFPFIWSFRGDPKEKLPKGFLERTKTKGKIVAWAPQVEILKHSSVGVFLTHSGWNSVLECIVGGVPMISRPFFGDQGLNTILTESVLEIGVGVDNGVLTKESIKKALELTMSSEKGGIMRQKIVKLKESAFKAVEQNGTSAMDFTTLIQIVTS


Experiments:
UGT78G1 [1] = biological target: T1, UGT78G1; experiment: UGT78G1 enzyme reactions with acceptor substrates, products analyzed by HPLC; format: biochemical; set-up: hexahistidine tag with thrombin cleavage site (pET28a(+)) (N); made in house; host or cells: E. coli BL21 (DE3)
Text: Reactions were stopped with TCA and products analyzed by HPLC as described above.

UGT78G1 [2] = biological target: T1, UGT78G1; experiment: Kinetic analysis of UGT78G1 (GT83F) with (iso)flavonoid acceptor substrates, UDP-[14C]-glucose donor; conditions: for Vmax compared with that for most of the other substrates / substrate quality for UGT78G1 in vitro: in words; for Kcat / Vmax / Km: recombinant UGT78G1, donor UDP-glucose, 30° C., pH 7.0; for Kcat/Km ratio: unit not given
Description: The PCR product was purified, ligated to pGEMTeasy vector (Promega, Madison, Wis., USA), sequenced, excised and re-cloned between the BamHI and NotI sites of pET28a(+) (Novagen, Madison, Wis., USA) with a hexahistidine tag and a thrombin cleavage site. E. coli BL21 (DE3) cells harboring the expression construct were grown to an OD600 of 0.4-0.5, and expression was initiated by addition of isopropyl 1-thio-β-D-galactopyranoside (IPTG) at a final concentration of 0.2 mM, with further incubation with shaking overnight at 16° C. The enzyme was purified from E. coli lysates by nickel affinity chromatography.
Reactions were stopped with TCA after 15 min incubation at 30° C. Samples were extracted with 250 μl of ethyl acetate, and 200 μl were taken for liquid scintillation counting (Beckman LS6500). Data were analyzed using Hyper32 software for the analysis of enzyme-kinetic data (J. S. Easterby, University of Liverpool, Liverpool, UK; available at www.liv.ac.uk/˜jse/software.html).

UGT78G1 [3] = biological target: T1, UGT78G1; set-up: hexahistidine tag with thrombin cleavage site (pET28a(+)) (N); made in house; host or cells: E. coli BL21 (DE3); conditions: in vitro (Modolo et al, 2007); cited from earlier work
[4] = substrate: O=c1c(-c2ccc(O)cc2)coc2cc(O)cc(O)c12; experiment: purified protein, by the assay type; conditions: other: recombinant UGT78G1, donor UDP-glucose, 30° C., pH 7.0
[5] = substrate: O=c1cc(-c2ccc(O)cc2)oc2cc(O)cc(O)c12; experiment: purified protein, by the assay type; conditions: other: recombinant UGT78G1, donor UDP-glucose, 30° C., pH 7.0
[6] = substrate: O=c1c(O)c(-c2ccc(O)c(O)c2)oc2cc(O)cc(O)c12; experiment: purified protein, by the assay type; conditions: other: recombinant UGT78G1, donor UDP-glucose, 30° C., pH 7.0
[7] = substrate: O=c1c(O)c(-c2ccc(O)cc2)oc2cc(O)cc(O)c12; experiment: purified protein, by the assay type; conditions: other: recombinant UGT78G1, donor UDP-glucose, 30° C., pH 7.0

| Molecule | position of glycosylation by UGT78G1 (UGT78G1 [1]) | Kcat (UGT78G1 [2]) | Vmax (UGT78G1 [2]) | Km (UGT78G1 [2]) | also measured |
| --- | --- | --- | --- | --- | --- |
| O=c1c(O)c(-c2ccc(O)c(O)c2)oc2cc(O)cc(O)c12 [quercetin] | 3-position | 0.029 s⁻¹ | 0.8557 µmol/min | – | Vmax compared with that for most of the other substrates (UGT78G1 [2]): much higher |
| O=c1c(-c2ccc(O)cc2)coc2cc(O)ccc12 [daidzein] | – | – | – | 1.6 µM | – |
| COc1ccc(-c2coc3cc(O)cc(O)c3c2=O)cc1 [biochanin A (4′-methoxy genistein)] | 7-O-position | 0.012 s⁻¹ | 0.3666 µmol/min | 11.7 µM | – |
| O=c1c(O)c(-c2ccc(O)cc2)oc2cc(O)cc(O)c12 [kaempferol] | 3-position | 0.053 s⁻¹ | 1.5830 µmol/min | – | Vmax compared with that for most of the other substrates (UGT78G1 [2]): much higher |
| COc1ccc(-c2coc3cc(O)ccc3c2=O)cc1 [formononetin] | 7-O-position | 0.0029 s⁻¹ | 0.0879 µmol/min | 1.5 µM | preference (Kcat/Km) for formononetin over daidzein (UGT78G1 [2]; relative to daidzein): about 2 fold |
| O=c1c(-c2ccc(O)cc2)coc2cc(O)cc(O)c12 [genistein] | 7-O-position | 0.004 s⁻¹ | 1.2050 µmol/min | – | Km of genistein relative to Km of daidzein (UGT78G1 [2]; relative to daidzein): 23 fold; Kcat/Km ratio (UGT78G1 [2]): 1,098 |
| cyanidin | – | 0.0068 s⁻¹ | 0.2025 µmol/min | 52 µM | substrate quality for UGT78G1 in vitro (UGT78G1 [2]): relatively poor substrates; activity of UGT78G1 with substrate (UGT78G1 [3]): shows activity |
| Oc1ccc(-c2[o+]c3cc(O)cc(O)c3cc2O)cc1 [pelargonidin] | – | 0.0057 s⁻¹ | 0.1698 µmol/min | 71.8 µM | substrate quality for UGT78G1 in vitro (UGT78G1 [2]): relatively poor substrates; activity of UGT78G1 with substrate (UGT78G1 [3]): shows activity |
| O=c1cc(-c2ccc(O)cc2)oc2cc(O)cc(O)c12 [apigenin] | 7-O-position | – | – | – | Kcat/Km ratio (UGT78G1 [2]): 1,534 |
| UGT78G1 (Medicago truncatula) (protein) MSTFKNEMNGNNLLHVAVLAFPFGTHAAPLLSLVKKIATEAPKVTFSFFCTTTTNDTLFSRSNEFLPNIKYYNVHDGLPKGYVSSGNPREPIFLFIKAMQENFKHVIDEAVAETGKNITCLVTDAFFWFGADLAEEMHAKWVPLWTAGPHSLLTHVYTDLIREKTGSKEVHDVKSIDVLPGFPELKASDLPEGVIKDIDVPFATMLHKMGLELPRANAVAINSFATIHPLIENELNSKFKLLLNVGPFNLTTPQRKVSDEHGCLEWLDQHENSSVVYISFGSVVTPPPHELTALAESLEECGFPFIWSFRGDPKEKLPKGFLERTKTKGKIVAWAPQVEILKHSSVGVFLTHSGWNSVLECIVGGVPMISRPFFGDQGLNTILTESVLEIGVGVDNGVLTKESIKKALELTMSSEKGGIMRQKIVKLKESAFKAVEQNGTSAMDFTTLIQIVTS | – | – | – | – | Km [4]: 36.7 µM; Km [5]: 1.5 µM; Vmax [5]: 0.0688 µmol/min; kcat [5]: 0.0023 s⁻¹; kcat/Km [5]: 1530 M⁻¹ s⁻¹; Km [6]: 28.7 µM; Km [7]: 89.8 µM |
